Experimental data taken from PMC6017655, “In Silico and in Vitro-Guided Identification of Inhibitors of Alkylquinolone-Dependent Quorum Sensing in Pseudomonas aeruginosa” (Molecules : A Journal of Synthetic Chemistry and Natural …, 2018).
Read-outs that look alike come from different tables or passages of the source.

Tests used:
[1] = tested on: PqsR (pqsA promoter, PAO1-L mCTX::PpqsA-lux); test: Whole cell biosensor reporter assay, PAO1-L mCTX::PpqsA-lux; type: cell-based, Pseudomonas aeruginosa; details: for IC50: Mean ± SD, n = 3; for activity at 10 µM: PAO1, read-out: PAO1-L Remaining Activity %; for PqsR inhibitory activity (in words), PAO1-L: screen at 10 µM / dose-response
Description: (§1) To determine the ability of the quinolines to inhibit PqsR functionality, the P. aeruginosa biosensor strains, PAO1-L and PA14, incorporating a chromosomal mCTX::PpqsA-lux transcriptional fusion, were used. These report on the activation of the pqsA promoter, regulated by PqsR [25]. PAO1-L and PA14 were chosen because they are genetically amenable and belong to the two major P. aeruginosa genomic groups. The quinolone compounds were incubated with the corresponding strain, and luminescence and optical density readings were recorded to monitor the effect of the quinolines on PqsR activity and bacterial growth, respectively. The compounds were screened at 10 µM concentration, and the activity was compared to a control of DMSO (0.1%) (Figure 3a). To be considered a hit, a threshold of at least 50% inhibition of the test compound, relative to the negative control had to be reached, without affecting bacterial growth. […] Concentration-response experiments were then carried out to determine the IC50 values (Figure 3b,c), which are summarised in Table 1.
(§2) Strains PA14 mCTX::PpqsA-lux and PAO1-L mCTX::PpqsA-lux were constructed using plasmid mini-CTX::PpqsA-lux, as previously described, and the assay was performed according to a published protocol. For screening, the compounds were tested at a concentration of 10 µM, which was prepared from a 10 mM stock, in DMSO.

[2] = tested on: AQ production in PAO1-L; test: Alkylquinolone (HHQ, PQS, HQNO) production by LC-MS/MS, PAO1-L; type: cell-based, Pseudomonas aeruginosa; details: 3x IC50, 16 h, culture supernatant
Description: (§3) HQNO, can protect Staphylococcus aureus from vancomycin [31] and contributes to the environmental competitiveness of P. aeruginosa, through its activity as a potent inhibitor of the cytochrome bc1 complex. […] LC-MS/MS was used to quantify the major AQs HHQ, PQS and HQNO after incubation of the P. aeruginosa strains with the hit compounds, for 16 h. The assay was performed using both PAO1-L and PA14 strains which were treated with PqsR antagonists at concentrations three-fold higher than their IC50 values. The results obtained depended on the inhibitor and strain tested (Figure 5).
(§4) For each test sample, 100 µL of sterile filtered supernatant (the same preparation as for pyocyanin) was spiked with 10 µL of an internal standard solution (10 µM d4-PQS in MeOH), and diluted with water, to a total volume of 500 µL. Samples were then extracted three times with an 0.5 mL aliquot of ethyl acetate, vortex mixing the aqueous/organic mix for 2 min, then removing the organic phase once the layers had successfully partitioned. For each sample, the combined organic extracts were dried under vacuum and re-dissolved in 100 µL MeOH prior to analysis. For the LC-MS/MS analysis of supernatant extracts, the chromatography was achieved using a Shimadzu series 10AD VP LC system (Columbia, MD, USA). The LC column, maintained at 40 °C, was a Phenomenex Gemini C18 (3.0 µm, 100 × 3.0 mm) (Macclesfield, Cheshire, UK) with an appropriate guard column. Mobile phase A was 0.1% (v/v) formic acid in water containing 2 mM 2-picolinic acid, and mobile phase B 0.1% (v/v) formic acid in methanol. The flow rate throughout the chromatographic separation was 450 µL/min. After an injection of a 2 µL/sample, a binary gradient, beginning initially at 30% B, increased linearly to 99% B over 5 min. The composition remained at 99% B for 3 min, decreased to 30% B over 1 min, and stayed at this composition for 4 min, to allow for column equilibration. […] Where chromatographic peaks for HHQ, HQNO and PQS were detected, a peak area was determined, and analyte peak area/internal standard peak area calculated.

[3] = Hepatic microsomal stability, human; type: in vitro ADME; details: liver microsomes, pH 7.4, 0.5 mg/mL protein, NADPH, 37 °C; for half-life at 1 µM: read-out: Microsomal Stability Human t1/2
Description: (§5) Dilutions of a 1 mM test compound DMSO stock solution were prepared in buffer (typically 0.01 M phosphate buffered saline (pH 7.4) so that the final DMSO concentration was 0.1% v/v and the final test compound concentration tested was 1 µM. Following addition of protein (0.5 mg/mL final) and NADPH, the samples were pre-incubated for 10 min prior to the start of the incubation by the addition of test compound. The test compounds were then incubated (n = 2; 1 µM final concentration) at 37 °C with tissue microsomes. Aliquots were sampled at several time points and mixed with acetonitrile (containing internal standard) to terminate the reaction and precipitate the proteins. All the samples were mixed, centrifuged and the supernatants analysed by UPLC-MS/MS. The intrinsic clearance (Clint) and half-life (t 1/2) values were determined from the slope of the parent depletion curve. Control compounds for low, moderate and high intrinsic clearance, respectively, for both human and rat microsomes, were included.

[4] = Hepatic microsomal stability, rat; type: in vitro ADME; details: liver microsomes, pH 7.4, 0.5 mg/mL protein, NADPH, 37 °C; for microsomal CLint at 1 µM: read-out: Microsomal Stability Rat Clint (intrinsic clearance); for half-life at 1 µM: read-out: Microsomal Stability Rat t1/2
Description: as §5

[5] = tested on: PqsR (pqsA promoter, PA14 mCTX::PpqsA-lux); test: Whole cell biosensor reporter assay, PA14 mCTX::PpqsA-lux; type: cell-based, Pseudomonas aeruginosa; details: for IC50: Mean ± SD, n = 3; for activity at 10 µM: PA14, read-out: PA14 Remaining Activity %; for PqsR inhibitory activity (in words), PA14: screen at 10 µM
Description: as §1, §2

[6] = tested on: PAO1-L; test: Bacterial growth (optical density) in reporter assay, PAO1-L; type: cell-based, Pseudomonas aeruginosa; details: compound vs DMSO control
Description: as §1
(§6) Figure 3 Whole bacterial cell-based P. aeruginosa compound screen for both PqsR and growth inhibition (a) Activity against PA14 (green) and PAO1-L (purple) PpqsA-lux reporter strains at 10 µM test compound; (b) and (c) Dose-response curves for active compounds against PA14 (b) and PAO1-L (c); (d) and (e) growth curves for PA14 (d) and PAO1-L (e) in the presence of compound or DMSO control.

[7] = Plasma stability, rat; type: in vitro ADME; details: 37 °C, up to 2 h, read-out: Plasma Stability Rat t1/2
Description: (§7) Dilutions of a 10 mM test compound DMSO stock solution were prepared so that the final DMSO concentration was 1% v/v and the final test compound concentration tested was 1 µM. Following the addition of the test compound to plasma, the samples were pre-incubated for 10 min prior to the start of the incubation by the addition of the test compound. The test compound was incubated (n = 2; 1 µM final concentration) at 37 °C with plasma for up to 2 h. Aliquots were sampled at several time points and mixed with acetonitrile (containing internal standard) to terminate the reaction and precipitate the proteins. All the samples were mixed, centrifuged and the supernatants analysed by UPLC-MSMS. Parent disappearance and half-life (t 1/2) values were determined from the slope of the parent depletion curve. Control compounds (imidapril, enalapril, tenofovir and/or propantheline), were respectively included.

[8] = Plasma stability, human; type: in vitro ADME; details: 37 °C; for half-life at 1 µM: human, plasma, up to 2 h, read-out: Plasma Stability Human t 1/2
Description: as §7

[9] = tested on: PA14; test: Bacterial growth (optical density) in reporter assay, PA14; type: cell-based, Pseudomonas aeruginosa; details: compound vs DMSO control
Description: as §1, §6

[10] = tested on: AQ production in PA14; test: Alkylquinolone (HHQ, PQS, HQNO) production by LC-MS/MS, PA14; type: cell-based, Pseudomonas aeruginosa; details: 3x IC50, 16 h, culture supernatant
Description: as §3, §4

[11] = Pseudomonas aeruginosa, PAO1, read-out: IC50 PAO1-L, PpqsA-lux reporter
[12] = read-out: IC50 PAO1-L, PpqsA-lux reporter
[13] = Pseudomonas aeruginosa, PA14, read-out: IC50 PA14, PpqsA-lux reporter

Row | SMILES | IC50 [1, 11] | activity at 10 µM ([1]; Pseudomonas aeruginosa) | IC50 [1, 12] | PqsR inhibitory activity (in words), PAO1-L [1] | Inhibition of AQ production (in words), PAO1-L [2] | microsomal CLint at 1 µM [3] | half-life at 1 µM [3] | microsomal CLint at 1 µM [4] | half-life at 1 µM [4] | IC50 [5, 13] | activity at 10 µM ([5]; Pseudomonas aeruginosa) | PqsR inhibitory activity (in words), PA14 [5] | Effect on bacterial growth, PAO1-L [6] | half-life at 1 µM [7] | half-life at 1 µM [8] | Effect on bacterial growth, PA14 [9] | Inhibition of AQ production (in words), PA14 [10] | IC50 ([5]; read-out: IC50 PA14, PpqsA-lux reporter) | Plasma stability (in words), human plasma ([8]; 1 µM)
1 | O=CN1N=C(c2ccccc2)CC1c1cccc(Nc2ccnc3cc(C(F)(F)F)ccc23)c1 (stereo not shown) [Ii] | 5 µM | 15.6 ± 2.53% | 5.1 ± 0.32 µM | strong PqsR inhibitory activity | greatest inhibition | 80.7 µL/min/mg | 17.2 min | 54.1 µL/min/mg | 25.7 min | 5 ± 0.82 µM | 16.6 ± 1.3% | strong PqsR inhibitory activity | without interfering with bacterial growth | > 240 min | 69.1 min | without interfering with bacterial growth | not observed |  | 
2 | CC(=O)N1N=C(c2ccccc2)CC1c1cccc(Nc2ccnc3cc(C(F)(F)F)ccc23)c1 (stereo not shown) [IIi] | 5 µM | 26.1 ± 0.99% | 5.14 ± 0.6 µM | strong PqsR inhibitory activity |  | 72.9 µL/min/mg | 19 min | 65.7 µL/min/mg | 21.1 min | 5 µM | 16.8 ± 1.01% | strong PqsR inhibitory activity | without interfering with bacterial growth | > 240 min | 157 min | without interfering with bacterial growth |  | 4.9 ± 0.3 µM | greatest plasma stability
